Measured values as given in PubChem BioAssay AID488835 (Broad Institute, 2010).

Biological target: Lysine-specific demethylase 4C (Homo sapiens) (UniProt Q9H3R0)
Test: inhibition of JMJD2C H3K9me3 demethylation – biochemical, DELFIA europium, cherry-picked samples, dose response (AID 488835);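 further: signal is the H3K9me2 demethylation product detected by a dimethyl-specific antibody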
Conditions: GST-JMJD2C(1-420)

Lysine-specific demethylase 4C (Homo sapiens), sequence (Q9H3R0 1-420 limits assumed): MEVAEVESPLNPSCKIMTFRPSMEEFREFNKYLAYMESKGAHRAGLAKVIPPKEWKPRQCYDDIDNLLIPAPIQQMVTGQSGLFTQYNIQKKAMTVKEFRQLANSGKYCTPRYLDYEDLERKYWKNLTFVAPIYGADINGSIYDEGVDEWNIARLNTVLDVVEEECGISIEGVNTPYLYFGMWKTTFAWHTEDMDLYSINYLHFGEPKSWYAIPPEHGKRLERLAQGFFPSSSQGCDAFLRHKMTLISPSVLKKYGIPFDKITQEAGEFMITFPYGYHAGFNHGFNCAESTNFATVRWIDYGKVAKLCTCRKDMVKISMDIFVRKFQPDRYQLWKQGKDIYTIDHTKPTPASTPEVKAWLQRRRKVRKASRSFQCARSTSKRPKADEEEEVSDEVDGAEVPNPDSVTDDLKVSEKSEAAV

## C#CCOCCOCCOCCNc1nc(N2CCN(C(=O)CCCCCCCCCCNC(=O)[C@H]([C@@H](C)CC)n3cc(CCCCN=C(N)N)nn3)CC2)nc(N2CCN(C(=O)CCCCCCCCCCNC(=O)[C@H](CCCCN)n3cc(C)nn3)CC2)n1
  AC50: 6.07 µM
